Source: ChEMBL document CHEMBL1909046, “DrugMatrix in vitro pharmacology data”

Experiments:
[1] = molecular target: T1, Alpha-1A adrenergic receptor (Rattus norvegicus, UniProt P43140); experiment: DRUGMATRIX: Alpha-1A adrenergic receptor radioligand binding (ligand: prazosin); format: cell membranes, Wistar, Submaxillary gland, Membrane; settings: Not Active = under 50% inhibition at 10 µM
T1 sequence (P43140 whole entry): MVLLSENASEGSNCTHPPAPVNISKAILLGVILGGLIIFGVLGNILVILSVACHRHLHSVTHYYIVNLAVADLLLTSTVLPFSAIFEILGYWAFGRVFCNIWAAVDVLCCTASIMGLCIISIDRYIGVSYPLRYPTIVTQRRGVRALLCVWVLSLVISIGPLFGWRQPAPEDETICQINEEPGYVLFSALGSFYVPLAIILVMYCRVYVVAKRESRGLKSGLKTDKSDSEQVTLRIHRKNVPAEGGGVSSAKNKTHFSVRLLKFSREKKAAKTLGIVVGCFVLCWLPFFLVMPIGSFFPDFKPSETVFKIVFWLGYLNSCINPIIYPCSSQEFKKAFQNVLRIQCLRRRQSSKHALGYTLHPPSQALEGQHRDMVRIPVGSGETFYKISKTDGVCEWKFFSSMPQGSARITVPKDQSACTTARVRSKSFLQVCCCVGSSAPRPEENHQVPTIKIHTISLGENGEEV

[2] = molecular target: T2, Alpha-2A adrenergic receptor (Homo sapiens, UniProt P08913); format: cell membranes, Sf9, Membrane; settings: sf9; also: in other assays of this panel Not Active means under 50% inhibition at 10 µM
T2 sequence (P08913 whole entry): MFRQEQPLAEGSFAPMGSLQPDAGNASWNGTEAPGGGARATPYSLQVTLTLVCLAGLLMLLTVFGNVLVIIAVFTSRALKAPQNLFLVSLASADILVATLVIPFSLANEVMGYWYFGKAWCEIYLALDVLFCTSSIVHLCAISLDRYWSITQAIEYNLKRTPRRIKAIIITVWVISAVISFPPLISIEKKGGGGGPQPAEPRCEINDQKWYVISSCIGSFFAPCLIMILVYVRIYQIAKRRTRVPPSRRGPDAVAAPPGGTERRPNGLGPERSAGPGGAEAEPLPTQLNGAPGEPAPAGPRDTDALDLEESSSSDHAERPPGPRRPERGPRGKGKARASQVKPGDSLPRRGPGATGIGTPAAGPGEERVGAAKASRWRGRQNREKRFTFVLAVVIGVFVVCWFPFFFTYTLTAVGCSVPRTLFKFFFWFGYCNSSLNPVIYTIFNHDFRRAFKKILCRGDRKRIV

[3] = molecular target: 5-hydroxytryptamine receptor 2B (Homo sapiens, UniProt P41595); format: cell membranes, CHO-K1, Membrane; also: in other assays of this panel Not Active means under 50% inhibition at 10 µM
Sequence of 5-hydroxytryptamine receptor 2B (P41595 whole entry): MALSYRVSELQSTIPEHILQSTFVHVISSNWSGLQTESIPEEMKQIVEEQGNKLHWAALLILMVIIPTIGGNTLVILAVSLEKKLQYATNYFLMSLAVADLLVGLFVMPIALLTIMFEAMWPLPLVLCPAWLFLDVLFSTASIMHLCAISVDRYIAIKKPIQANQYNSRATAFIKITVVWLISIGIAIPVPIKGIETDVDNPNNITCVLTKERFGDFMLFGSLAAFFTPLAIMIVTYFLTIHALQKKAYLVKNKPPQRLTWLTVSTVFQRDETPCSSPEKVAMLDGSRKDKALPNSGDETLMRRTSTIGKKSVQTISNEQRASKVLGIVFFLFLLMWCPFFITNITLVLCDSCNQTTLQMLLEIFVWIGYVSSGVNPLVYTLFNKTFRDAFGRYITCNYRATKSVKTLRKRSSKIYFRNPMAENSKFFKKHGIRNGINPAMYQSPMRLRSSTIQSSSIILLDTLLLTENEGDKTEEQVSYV

[4] = molecular target: 5-hydroxytryptamine receptor 6 (Homo sapiens, UniProt P50406); format: cell membranes, HeLa, Membrane; settings: hela; also: in other assays of this panel Not Active means under 50% inhibition at 10 µM
Sequence of 5-hydroxytryptamine receptor 6 (P50406 whole entry): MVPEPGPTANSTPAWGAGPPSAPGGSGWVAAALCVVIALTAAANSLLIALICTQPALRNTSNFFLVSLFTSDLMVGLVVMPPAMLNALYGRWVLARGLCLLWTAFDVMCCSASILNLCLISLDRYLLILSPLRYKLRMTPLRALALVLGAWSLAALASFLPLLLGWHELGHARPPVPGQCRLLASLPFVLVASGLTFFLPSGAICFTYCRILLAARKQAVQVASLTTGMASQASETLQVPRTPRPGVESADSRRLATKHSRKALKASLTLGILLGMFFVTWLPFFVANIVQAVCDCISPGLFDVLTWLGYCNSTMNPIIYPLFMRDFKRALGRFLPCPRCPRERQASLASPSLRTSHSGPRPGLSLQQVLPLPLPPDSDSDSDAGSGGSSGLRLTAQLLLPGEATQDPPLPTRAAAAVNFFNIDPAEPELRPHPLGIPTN

[5] = molecular target: T3, Cholecystokinin receptor type A (Homo sapiens, UniProt P32238); format: cell membranes, Membrane; settings: 1321-n1; also: in other assays of this panel Not Active means under 50% inhibition at 10 µM
T3 sequence (P32238 whole entry): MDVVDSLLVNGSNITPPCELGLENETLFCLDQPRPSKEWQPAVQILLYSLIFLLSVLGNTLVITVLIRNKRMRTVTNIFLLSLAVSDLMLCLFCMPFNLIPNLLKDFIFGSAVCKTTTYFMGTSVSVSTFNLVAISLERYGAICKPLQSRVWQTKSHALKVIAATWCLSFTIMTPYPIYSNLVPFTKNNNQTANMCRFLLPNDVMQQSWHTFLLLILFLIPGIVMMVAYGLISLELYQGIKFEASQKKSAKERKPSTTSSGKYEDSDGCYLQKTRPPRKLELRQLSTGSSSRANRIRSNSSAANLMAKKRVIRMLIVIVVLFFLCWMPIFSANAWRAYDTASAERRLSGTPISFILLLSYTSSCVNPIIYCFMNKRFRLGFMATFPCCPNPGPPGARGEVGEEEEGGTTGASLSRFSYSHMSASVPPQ

[6] = molecular target: Histamine H2 receptor (Homo sapiens, UniProt P25021); format: cell membranes, CHO-K1, Membrane; settings: cho-k1; also: in other assays of this panel Not Active means under 50% inhibition at 10 µM
Sequence of Histamine H2 receptor (P25021 whole entry): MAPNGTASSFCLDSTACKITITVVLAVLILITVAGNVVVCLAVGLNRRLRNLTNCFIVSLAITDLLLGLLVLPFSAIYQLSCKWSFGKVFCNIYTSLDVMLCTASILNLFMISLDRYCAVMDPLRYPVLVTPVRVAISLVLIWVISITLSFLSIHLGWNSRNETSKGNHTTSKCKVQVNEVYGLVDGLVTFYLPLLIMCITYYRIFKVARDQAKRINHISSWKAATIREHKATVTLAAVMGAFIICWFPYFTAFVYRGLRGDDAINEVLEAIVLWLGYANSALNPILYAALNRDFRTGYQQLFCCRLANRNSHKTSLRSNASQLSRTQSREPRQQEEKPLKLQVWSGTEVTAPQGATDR

Molecule	IC50 [1]	Ki [1]	IC50 [2]	Ki [2]	IC50 ([3]; cho-k1)	Ki ([3]; cho-k1)	IC50 [4]	Ki [4]	IC50 [5]	Ki [5]	IC50 [6]	Ki [6]	IC50 ([3]; read-out: IC50)	Ki ([3]; read-out: Ki)
INSULIN HUMAN	Not Active	Not Active	Not Active	Not Active	Not Active	Not Active	Not Active	Not Active	Not Active	Not Active	Not Active	Not Active	–	–
CCOC(=O)[C@H](CCc1ccccc1)N[C@@H](C)C(=O)N1CCC[C@H]1C(=O)O	Not Active	–	Not Active	–	Not Active	–	Not Active	–	Not Active	–	Not Active	–	–	–
O=C(O)c1cc(=O)c2c(OCC(O)COc3cccc4oc(C(=O)O)cc(=O)c34)cccc2o1 [CROMOLYN]	Not Active	–	Not Active	–	Not Active	–	Not Active	–	Not Active	–	Not Active	–	–	–
Cc1cccc(Nc2cc(Cl)nc(SCC(=O)O)n2)c1C [PIRINIXIC ACID]	Not Active	–	Not Active	–	Not Active	–	Not Active	–	Not Active	–	Not Active	–	–	–
CC[C@H]1OC(=O)[C@H](C)[C@@H](O[C@H]2C[C@@](C)(OC)[C@@H](O)[C@H](C)O2)[C@H](C)[C@@H](O[C@@H]2O[C@H](C)C[C@H](N(C)C)[C@H]2O)[C@](C)(OC)C[C@@H](C)C(=O)[C@H](C)[C@@H](O)[C@]1(C)O [CLARITHROMYCIN]	Not Active	–	Not Active	–	Not Active	–	Not Active	–	Not Active	–	Not Active	–	–	–
CCc1oc2ccccc2c1C(=O)c1cc(Br)c(O)c(Br)c1 [BENZBROMARONE]	Not Active	–	Not Active	–	–	–	Not Active	–	Not Active	–	Not Active	–	1800 nM	1150 nM
CC[C@]1(O)CC[C@H]2[C@@H]3CCC4=CCCC[C@@H]4[C@H]3CC[C@@]21C	Not Active	–	Not Active	–	Not Active	–	Not Active	–	Not Active	–	Not Active	–	–	–
CC(C)(Oc1ccc(C2CC2(Cl)Cl)cc1)C(=O)O (configuration not stated) [CIPROFIBRATE]	Not Active	–	Not Active	–	Not Active	–	Not Active	–	Not Active	–	Not Active	–	–	–
CO[C@H]1[C@@H](O)[C@H](N)[C@@H](O[C@H]2O[C@H]([C@H](C)N)CC[C@H]2N)[C@H](O)[C@@H]1N(C)C(=O)CN [ASTROMICIN]	Not Active	–	Not Active	–	Not Active	–	Not Active	–	Not Active	–	Not Active	–	–	–
Clc1cc2c(cc1Cl)Oc1cc(Cl)c(Cl)cc1O2 [2,3,7,8-TETRACHLORODIBENZO-P-DIOXIN]	Not Active	–	Not Active	–	Not Active	–	Not Active	–	Not Active	–	Not Active	–	–	–
CNC(=C[N+](=O)[O-])NCCSCc1csc(CN(C)C)n1 [NIZATIDINE]	Not Active	–	Not Active	–	Not Active	–	Not Active	–	Not Active	–	Not Active	–	–	–
COc1ccc2cc(CCC(C)=O)ccc2c1 [NABUMETONE]	Not Active	–	Not Active	–	Not Active	–	Not Active	–	Not Active	–	Not Active	–	–	–
CC(C(=O)O)c1ccc(CC2CCCC2=O)cc1 (configuration not stated) [LOXOPROFEN]	Not Active	–	Not Active	–	Not Active	–	Not Active	–	Not Active	–	Not Active	–	–	–
CCCCCC[C@H]1C(=O)O[C@H](C)[C@H](NC(=O)c2cccc(NC=O)c2O)C(=O)O[C@@H](C)[C@@H]1OC(=O)CC(C)C [ANTIMYCIN A]	Not Active	–	Not Active	–	Not Active	–	Not Active	–	Not Active	–	Not Active	–	–	–
Cc1cnc(C(=O)NCCc2ccc(S(=O)(=O)NC(=O)NC3CCCCC3)cc2)cn1 [GLIPIZIDE]	Not Active	–	Not Active	–	Not Active	–	Not Active	–	Not Active	–	Not Active	–	–	–
